The target of assay [1] is EGFR (human) (UniProt P00533). The conditions noted are these: kb.
For assay [2], the target named is EGFR (human) (UniProt P00533). The conditions noted are these: a431, dose or concentration not given here.

The structures appear in SMILES notation.

EGFR (human), sequence (P00533 whole entry, looked up): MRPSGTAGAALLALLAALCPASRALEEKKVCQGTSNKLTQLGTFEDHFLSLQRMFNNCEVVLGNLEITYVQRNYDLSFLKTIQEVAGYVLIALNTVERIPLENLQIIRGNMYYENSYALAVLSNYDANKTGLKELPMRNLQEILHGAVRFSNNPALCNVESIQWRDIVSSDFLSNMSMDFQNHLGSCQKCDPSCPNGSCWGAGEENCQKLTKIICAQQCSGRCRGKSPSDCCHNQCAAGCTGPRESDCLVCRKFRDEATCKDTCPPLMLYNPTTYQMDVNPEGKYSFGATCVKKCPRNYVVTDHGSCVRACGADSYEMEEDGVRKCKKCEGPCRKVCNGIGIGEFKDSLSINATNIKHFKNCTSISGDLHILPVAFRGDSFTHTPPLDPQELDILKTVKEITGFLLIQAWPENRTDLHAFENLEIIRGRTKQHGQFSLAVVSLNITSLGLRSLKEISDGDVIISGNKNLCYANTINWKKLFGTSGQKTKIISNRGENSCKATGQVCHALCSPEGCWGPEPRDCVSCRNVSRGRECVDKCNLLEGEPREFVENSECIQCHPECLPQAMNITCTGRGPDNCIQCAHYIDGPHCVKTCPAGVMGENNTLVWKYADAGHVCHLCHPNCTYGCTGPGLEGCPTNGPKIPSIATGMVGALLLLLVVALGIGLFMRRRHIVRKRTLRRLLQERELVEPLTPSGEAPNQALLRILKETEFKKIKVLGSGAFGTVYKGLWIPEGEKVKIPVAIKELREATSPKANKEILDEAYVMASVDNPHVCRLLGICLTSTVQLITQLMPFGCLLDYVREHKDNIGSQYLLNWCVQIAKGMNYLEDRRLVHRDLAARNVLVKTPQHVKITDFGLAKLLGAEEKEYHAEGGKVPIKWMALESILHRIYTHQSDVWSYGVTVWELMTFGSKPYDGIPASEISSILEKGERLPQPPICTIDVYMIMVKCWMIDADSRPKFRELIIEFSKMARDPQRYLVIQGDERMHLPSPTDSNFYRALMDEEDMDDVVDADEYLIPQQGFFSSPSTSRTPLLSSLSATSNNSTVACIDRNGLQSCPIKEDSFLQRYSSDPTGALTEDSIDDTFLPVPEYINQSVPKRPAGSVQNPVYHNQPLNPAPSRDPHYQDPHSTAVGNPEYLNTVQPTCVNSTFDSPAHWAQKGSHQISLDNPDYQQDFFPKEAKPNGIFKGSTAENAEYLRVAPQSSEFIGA

`COc1cc2ncnc(Nc3nnc4ccccc4n3)c2cc1OC`: the IC50 in assay [1] is above 25000 nM.

Regarding `COc1cc2ncnc(Nc3cnc4ccccc4n3)c2cc1OC`, the 50% inhibitory concentration (IC50) in assay [1] was above 25000 nM.

Consider `COc1cc2ncnc(NNc3ccc(F)c(Cl)c3)c2cc1OC`, for which the IC50 in assay [1] was determined as 780 nM.

On to `COc1cc2ncnc(NC3CC3c3ccccc3)c2cc1OC` (centres undefined), for which the IC50 in assay [1] came to 140 nM.

`COc1cc2ncnc(Nc3cncc4ccccc34)c2cc1OC` yielded an IC50 in assay [1] of 360 nM.

On to `COc1cc2ncnc(NC3CC3c3ccccc3)c2cc1O` (centres undefined), for which the IC50 in assay [1] was above 25000 nM.

As for `COc1cc2ncnc(NC3CC3c3ccccc3)c2cc1OCCCN(C)C` (centres undefined), the half-maximal inhibitory concentration (IC50) in assay [1] is 310 nM. In assay [2], this compound returned an inhibition of 36%.

On to `COc1cc2ncnc(NCc3cccc(C)c3)c2cc1OC`, for which the IC50 in assay [1] turned out to be 1600 nM.

Regarding `COc1cc2ncnc(N3CCc4ccccc43)c2cc1OC`, the IC50 in assay [1] stood at 4100 nM.

As for `COc1cc2ncnc(Nc3nccc4ccccc34)c2cc1OC`, in assay [1], the IC50 was 1800 nM.

For the compound `COc1cc2ncnc(NC3CCc4ccccc43)c2cc1OC` (centres undefined), the IC50 in assay [1] came out at 1730 nM.

The compound `COc1cc2ncnc(NC3CC3c3ccccc3)c2cc1OCCN1CCOCC1` (centres undefined) yielded an IC50 in assay [1] of 570 nM.

`COc1cc2ncnc(NC3CC3c3ccccc3)c2cc1OC(C)=O` (centres undefined) displayed an IC50 in assay [1] of 11400 nM.

The record behind these values is the Kinase Knowledgebase extract (Sharma et al. 2016).
